Data taken from PMC4778717 (ChemMedChem, 2015).
In brackets after ≈: the same amount, converted by molar mass.

How the values were obtained:
E. coli NR698 = assay: Bacteriostatic effect; format: cell-based; details: for MIC: Escherichia coli, NR698, 24 h, read-out: MIC, E. coli NR698
EcSecAN68 = EcSecAN68 (Escherichia coli, UniProt P10408); assay: biochemical; design: species or system E. coli
S. aureus 6538 = assay: Bacteriostatic effect; format: cell-based; details: for MIC: Staphylococcus aureus, 6538, 24 h, read-out: MIC, S. aureus 6538

Chain of EcSecAN68 (P10408 1-610): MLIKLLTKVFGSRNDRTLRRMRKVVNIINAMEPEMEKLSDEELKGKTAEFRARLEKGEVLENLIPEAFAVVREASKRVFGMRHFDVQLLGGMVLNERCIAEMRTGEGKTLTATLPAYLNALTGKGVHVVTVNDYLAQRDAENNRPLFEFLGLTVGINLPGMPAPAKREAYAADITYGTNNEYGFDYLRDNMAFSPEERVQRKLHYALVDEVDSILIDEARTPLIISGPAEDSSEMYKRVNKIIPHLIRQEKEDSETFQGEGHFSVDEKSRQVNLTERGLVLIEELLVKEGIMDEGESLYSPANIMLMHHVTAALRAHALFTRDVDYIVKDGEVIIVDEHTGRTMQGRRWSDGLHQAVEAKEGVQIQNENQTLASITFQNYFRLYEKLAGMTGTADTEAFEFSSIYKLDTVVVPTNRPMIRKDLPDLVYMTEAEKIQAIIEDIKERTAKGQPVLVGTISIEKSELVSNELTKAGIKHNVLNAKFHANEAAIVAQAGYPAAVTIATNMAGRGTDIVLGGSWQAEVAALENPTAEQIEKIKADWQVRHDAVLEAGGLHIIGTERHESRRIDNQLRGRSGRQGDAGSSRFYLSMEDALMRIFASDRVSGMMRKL

Structure (SMILES) | MIC (E. coli NR698) [µM] | IC50 (EcSecAN68) [µM] | MIC (S. aureus 6538) [µM] | MIC, E. coli NR698 (E. coli NR698; 24 hr incubation at 37 °C, outer membrane leaky mutant) [µM] | MIC, S. aureus 6538 (S. aureus 6538; 24 hr incubation at 37 °C) [µM]
CSC1=NC2=C(CN1)CNn1c(nnc1-c1cc(C(F)(F)F)cc(C(F)(F)F)c1)S2 [Compound 26] | > 100 | 50 | > 100 | – | –
CCc1ccc(-c2nc(Sc3nc(Cl)cc(Cl)n3)[nH]c(=O)c2C#N)cc1 [Compound 20b, 2-((4,6-Dichloropyrimidin-2-yl)thio)-4-(4-ethylphenyl)-6-oxo-1,6-dihydropyrimidine-5-carbonitrile] | > 250 | < 50 | > 250 | – | –
FC(F)(F)c1cc(-c2nnc(S)[nH]2)cc(C(F)(F)F)c1 [Compound 5a, 5-(3,5-Bis(trifluoromethyl)phenyl)-4H-1,2,4-triazole-3-thiol] | > 250 | 60 | > 250 | – | –
OCCCCSc1nc(Cl)cc(Sc2nnc(-c3cc(C(F)(F)F)cc(C(F)(F)F)c3)[nH]2)n1 [Compound 12e, 4-((4-((5-(3,5-Bis(trifluoromethyl)phenyl)-4H-1,2,4-triazol-3-yl)thio)-6-chloropyri-midin-2-yl)thio) butan-1-ol] | – | – | – | 43.8 (≈ 23.2 µg/mL) | 25.0 (≈ 13.2 µg/mL)
FC(F)(F)c1cccc(-c2nnc(Sc3cc(Cl)nc(Sc4ccccc4)n3)[nH]2)c1 [Compound 12g, 4-Chloro-2-(phenylthio)-6-((5-(3-(trifluoromethyl)phenyl)-4H-1,2,4-triazol-3-yl)thio) pyrimidine] | 18.8 (≈ 8.76 µg/mL) | < 50 | 18.8 (≈ 8.76 µg/mL) | – | –
CSc1nc(Cl)cc(Sc2nnc(-c3cccc(C(F)(F)F)c3)[nH]2)n1 [Compound 7j, 4-Chloro-2-(methylthio)-6-((5-(3-(trifluoromethyl)phenyl)-4H-1,2,4-triazol-3-yl)thio) pyrimidine] | > 250 | < 50 | > 250 | – | –
CSc1nc(Cl)cc(Sc2nnc(-c3ccc(C(F)(F)F)cc3)[nH]2)n1 [Compound 7i, 4-Chloro-2-(methylthio)-6-((5-(4-(trifluoromethyl)phenyl)-4H-1,2,4-triazol-3-yl)thio) pyrimidine] | 25 (≈ 10.1 µg/mL) | < 50 | 14.6 (≈ 5.9 µg/mL) | – | –
Fc1cccc(-c2nnc(Sc3nc(Cl)cc(Cl)n3)[nH]2)c1 [Compound 16d, 4,6-Dichloro-2-((5-(3-fluorophenyl)-4H-1,2,4-triazol-3-yl)thio) pyrimidine] | 200 (≈ 68.4 µg/mL) | > 100 | ≥ 100 | – | –
COc1cc(O)cc(-c2nnc(Sc3cc(Cl)nc(Sc4ccccc4)n3)[nH]2)c1 [Compound 12j, 3-(5-((6-Chloro-2-(phenylthio)pyrimidin-4-yl)thio)-4H-1,2,4-triazol-3-yl)-5-methoxy phenol] | > 250 | < 50 | ≥ 250 | – | –
CSc1nc(Cl)c2c(n1)Sc1nnc(-c3cc(C(F)(F)F)cc(C(F)(F)F)c3)n1NC2 [Compound 25] | > 250 | 46 | > 100 | – | –
CSc1nc(Cl)c2c(n1)Sc1nnc(-c3cc(C(F)(F)F)cc(C(F)(F)F)c3)n1N=C2 [Compound 24] | 12.5 (≈ 6.21 µg/mL) | < 25 | 3.1 (≈ 1.54 µg/mL) | – | –
COc1cc(OC)cc(-c2nnc(Sc3cc(Cl)nc(Sc4ccccc4)n3)[nH]2)c1 [Compound 12h, 4-Chloro-6-((5-(3,5-dimethoxyphenyl)-4H-1,2,4-triazol-3-yl)thio)-2-(phenylthio) pyrimidine] | > 250 | < 50 | ≥ 100 | – | –
CSc1nc(Cl)cc(Sc2nnc(-c3cc(C)cc(C)c3)[nH]2)n1 [Compound 7e, 4-Chloro-6-((5-(3,5-dimethylphenyl)-4H-1,2,4-triazol-3-yl)thio)-2-(methylthio) pyrimidine] | 50 (≈ 18.2 µg/mL) | 30 | 50 (≈ 18.2 µg/mL) | – | –
Cc1cc(C)cc(-c2nnc(Sc3cc(Cl)ncn3)[nH]2)c1 [Compound 9a, 4-Chloro-6-((5-(3,5-dimethylphenyl)-4H-1,2,4-triazol-3-yl)thio) pyrimidine] | > 250 | > 200 | > 250 | – | –
N#Cc1c(-c2ccc(Br)cc2)nc(Sc2nc(Cl)cc(Cl)n2)[nH]c1=O [Compound 20a, 4-(4-Bromophenyl)-2-((4,6-dichloropyrimidin-2-yl)thio)-6-oxo-1,6-dihydropyrimidine-5-carbonitrile] | > 250 | < 50 | > 250 | – | –
Fc1cc(F)cc(-c2nnc(Sc3cc(Cl)nc(Sc4ccccc4)n3)[nH]2)c1 [Compound 12f, 4-Chloro-6-((5-(3,5-difluorophenyl)-4H-1,2,4-triazol-3-yl)thio)-2-(phenylthio) pyrimidine] | 31.3 (≈ 13.6 µg/mL) | < 50 | 20.8 (≈ 9.03 µg/mL) | – | –
COc1cc(OC)cc(-c2nnc(Sc3cc(Cl)nc(SC)n3)[nH]2)c1 [Compound 7h, 4-Chloro-6-((5-(3,5-dimethoxyphenyl)-4H-1,2,4-triazol-3-yl)thio)-2-(methylthio) pyrimidine] | 100 (≈ 39.6 µg/mL) | < 50 | > 250 | – | –
